pIC50: −log10 of the molar value. “Also recorded” adds a separate entry of the source. Values belong to the compound of their own block, whether it stands above or below them.
Tests used:
Rb-NT (380-785) = biological target: T1, Rb-NT (380-785) (Homo sapiens, UniProt P06400); assay: Inhibition of AP-8-239 binding to Rb-NT (380-785); conditions: for Inhibition of AP-8-239 binding Rb-NT (380-785) Top: top of inhibition curve
T1 construct: Rb-NT (380-785)
T1 sequence (P06400 380-785): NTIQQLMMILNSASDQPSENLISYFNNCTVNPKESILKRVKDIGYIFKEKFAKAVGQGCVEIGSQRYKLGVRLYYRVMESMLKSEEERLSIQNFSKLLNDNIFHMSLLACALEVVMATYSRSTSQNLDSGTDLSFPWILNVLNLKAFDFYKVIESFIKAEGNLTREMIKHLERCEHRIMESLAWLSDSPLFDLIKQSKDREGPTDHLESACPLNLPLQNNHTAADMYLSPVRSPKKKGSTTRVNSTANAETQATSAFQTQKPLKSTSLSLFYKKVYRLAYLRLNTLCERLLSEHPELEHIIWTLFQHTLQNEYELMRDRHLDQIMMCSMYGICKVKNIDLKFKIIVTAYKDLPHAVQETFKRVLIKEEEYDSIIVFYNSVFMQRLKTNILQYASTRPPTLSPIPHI

[1] = biological target: T2, HDAC1 binding Rb-NT (380-785) (Homo sapiens, UniProt P06400); assay: Inhibition of HDAC1 binding to Rb-NT (380-785); conditions: for Inhibition of HDAC1 binding Rb-NT (380-785) Top: top of inhibition curve
T2 construct: Rb-NT (380-785)
T2 sequence (P06400 380-785): T1 sequence (P06400 380-785)
Description: Additionally, the binding of different proteins was evaluated. The binding of E7, E2F1, MDM2, and HDAC1 were evaluated to Rb fragments. The compounds tested herein where shown inhibit HDAC1 binding to the Rb fragments in the LxCxE binding pocket.

Rb protein = biological target: T3, Rb protein (Homo sapiens, UniProt P06400); assay: Iodoacetamide capping of Cys residues of compound-treated Rb protein, MALDI-MS; conditions: for # of CH2CONH2: RB + compound + Iodoacetamide, RB + DMSO control gives 8; for Cys residues masked from reacting with the iodoacetamide: Rb protein treated with compound, then iodoacetamide
T3 sequence (P06400 380-785 limits assumed): T1 sequence (P06400 380-785)
Description: Further studies were conducted to evaluate the binding of the compounds to the Rb protein. Using MS, the […] that had been treated with excess amounts of the compounds were then capped with iodoacetamide. […] Furthermore, there was a significant reduction in MS/MS sequencing events. […] One explanation is that the compound activates Cys706 for nucleophilic attack from Cys712.
In order to confirm that, the Rb protein was treated with iodoacetamide to cap the Cys residues. The predicted chart is shown below.

PDA T high cell line [2] = assay: Orthotopic PDA T high pancreatic tumor model in B6 wild-type mice; type: in vivo; conditions: 7 daily treatments from day 4, tumors collected day 22, listed as AP-3-84
Description: (§1) (FIGS. 2A-B) B6 wild-type mice were orthotopically injected with PDA T high cell line into the pancreas. T high PDA cell line was previously generated by Dr. Stanger's lab (Upenn), this tumor cell line can induce some T cell infiltration opposite to T low PDA cell line (shown in FIGS. 4A-C). Mice were treated with 7 daily AP-3-84 or vehicle starting from day 4. On day 22 pancreatic tumors were collected and compared across two groups. […] (FIG. 2C) B6 wild-type mice were injected subcutaneously with PDA T high tumor cells and treated with AP-3-84 or vehicle as in FIGS. 2A-B. Tumor growth was measured until day 31. […] (FIG. 2D) Same experiment as in FIGS. 2A-B was conducted in NSG immunodeficient mice.
Statistical analysis of the data was conducted using unpaired Student t-test criteria with additional false discovery rate adjustment for multiple comparisons for gene expression analysis.

[3] = test system: Nonhemopoietic cancer cells (ID8, PDAC); assay: Cell death in nonhemopoietic cancer cells; type: cell-based; conditions: listed as AP-3-84
Description: (§2) Additionally, the inventors obtained test results showing the compounds to be effective in models of AML. AML cell lines (THP-1, AML-193, Kasumi-1) were cultured at different cell concentration (75000/ml, 125,000/ml and 200,000/ml) and exposed to 5, 10, 15, 20 μM concentration of AP-3-84. Cell differentiation was induced by 100 ng/ml PMA over 24 hours. Nonhemopoietic cancer cells (ID8, PDAC) were analyzed after exposure to AP-3-84. Cell death outcomes were measured by Annexin-V using flowcytometry or viability measures by Alamar blue assay. Protein levels were measured by Western blots at intervals between 30 min and 6 hours after exposure to AP-3-84 for total Rb1, phosphorylated Rb1, ATF3, BIM, NOXA, BaK, Bax, cleaved PARP, cleaved Caspase-3. Cytoplasmic and mitochondrial lysates were examined. Confocal immunocytochemistry on Rb1 expression in nucleus versus cytoplasm was performed.

PDA T high tumor cells = assay: Subcutaneous PDA T high tumor model in B6 wild-type mice; type: in vivo; conditions: measured until day 31
Description: as §1

PDA T high cell line [4] = assay: Orthotopic PDA T high tumor model in NSG immunodeficient mice; type: in vivo
Description: as §1

THP-1 cell line = assay: Western blots of ER stress and apoptosis proteins; type: cell-based; conditions: Western blot, listed as AP-3-84
Description: as §2

[5] = test system: thioglycolate-induced macrophages; assay: Macrophage viability by Annexin V/DAPI staining; type: cell-based; conditions: different concentrations, 16 hours, listed as AP-3-84
Description: (§3) FIGS. 1A-B. Novel Rb1 modulator AP-3-84 induces cell death specifically in macrophages. (FIG. 1A) Tumor PDAC cells and thioglycolate-induced macrophages were cultured with different concentrations of AP-3-84 Rb1 modulator for 16 hours with the following assessment of viability by Annexin V/DAPI staining. […] (FIG. 1B) Thioglycollate-induced macrophages were cultured with 10 uM AP-3-84 for 4 hours and gene expression changes were studied by RNA-Seq.

PDA T low cell line = assay: PDA T low tumor model (orthotopic or subcutaneous) in B6 wild-type mice; type: in vivo
Description: FIGS. 4A-C. AP-3-84 renders more resistant PDA tumors with low T cell infiltration into immunotherapy responsive tumors. […] Statistical analysis of the data was conducted using unpaired Student t-test criteria with additional false discovery rate adjustment for multiple comparisons for gene expression analysis.

[6] = test system: nonhemopoitic cancer cells; assay: Cell proliferation by CFSE dye dilution; type: cell-based; conditions: nonhemopoietic cancer cells
Text: FIG. 22A-22C. […] A. Graphs indicates the total percentage of cell death (annexin V+ and AnnexinV+Live-Dead+ cells) in PMA treated THP-1 cells. […] C. Histogram indicates cell proliferation, measured by CSFE dye dilution in presence of AP-3-84 and other inhibitors. Bar diagram indicates average MFI of CFSE dye in presence of different inhibitors.

Tumor PDAC cells = assay: Tumor cell viability by Annexin V/DAPI staining; type: cell-based; conditions: different concentrations, 16 hours, listed as AP-3-84
Description: as §3

[7] = test system: tumor-associated macrophages; assay: Flow cytometry of immune cells in orthotopic PDA T high model; type: in vivo, mice
Description: FIGS. 3A-B. AP-3-84 depletes tumor macrophages and re-shapes immune cell landscape. (FIGS. 3A-B) B6 wild-type mice were orthotopically injected with PDA T high cell line into the pancreas and treated with AP-3-84 or vehicle as in FIGS. 2A-D. Tumor cells on day 12 (FIG. 3A) or peritoneum cells on day 21 (FIG. 3B) were analyzed by flow cytometry. […] Significant effects on activation and differentiation of immune cells in tumor and periphery were also found (not shown).

[8] = test system: AML cell lines (THP-1, AML-193, Kasumi-1); assay: Cell death in AML cell lines (Annexin-V flow cytometry, Alamar blue); type: cell-based
Description: as §2

[9] = test system: PMA differentiated THP1 cells; assay: Cell death in PMA differentiated THP-1 cells; type: cell-based; conditions: PMA treated THP-1 cells; listed as AP-3-84
Description: as §2

[10] = test system: Thioglycollate-induced macrophages; assay: Gene expression changes by RNA-Seq; type: cell-based; conditions: 10 uM, 4 hours, listed as AP-3-84
Description: as §3

- pIC50 (Rb-NT (380-785)): 7.66
- Inhibition of AP-8-239 binding Rb-NT (380-785) Top (Rb-NT (380-785)): 85.9%
- pIC50 [1]: 6.77
- Inhibition of HDAC1 binding Rb-NT (380-785) Top [1]: 72%
SMILES: Cn1c(=O)sn(-c2cccc(OCCCNC(=O)CC[C@@H](NC(=O)c3ccc(NCCc4cc5c(=O)[nH]c(N)nc5[nH]4)cc3)C(=O)O)c2)c1=O [AP-08-237]

- pIC50 (Rb-NT (380-785)): 6.44
- Inhibition of AP-8-239 binding Rb-NT (380-785) Top (Rb-NT (380-785)): 83.3%
- pIC50 [1]: 7.11
- Inhibition of HDAC1 binding Rb-NT (380-785) Top [1]: 72%
SMILES: Cn1c(=O)sn(-c2cccc(OCCCN)c2)c1=O [AP-08-231]

- # of CH2CONH2 (Rb protein): 6
- Cys residues masked from reacting with the iodoacetamide (Rb protein): 2
SMILES: Cn1c(=O)sn(-c2cccc(OCCCNC(=S)Nc3ccc4c(c3)C(=O)OC43c4ccc(O)cc4Oc4cc(O)ccc43)c2)c1=O [AP-08-239]

SMILES: O=c1sn(-c2cccc3ccccc23)c(=O)n1Cc1ccccc1 [Tideglusib, reference compound]
- pIC50 (Rb-NT (380-785)): 6.90
- Inhibition of AP-8-239 binding Rb-NT (380-785) Top (Rb-NT (380-785)): 86.9%
- pIC50 [1]: 7.40
- Inhibition of HDAC1 binding Rb-NT (380-785) Top [1]: 77%

- pIC50 (Rb-NT (380-785)): 7.27
- Inhibition of AP-8-239 binding Rb-NT (380-785) Top (Rb-NT (380-785)): 90.6%
- pIC50 [1]: 7.08
- Inhibition of HDAC1 binding Rb-NT (380-785) Top [1]: 71%
SMILES: Cn1c(=O)sn(-c2cccc(OCCCNC(=O)c3ccccc3)c2)c1=O [AP-08-238]

- pIC50 (Rb-NT (380-785)): 5.53
- Inhibition of AP-8-239 binding Rb-NT (380-785) Top (Rb-NT (380-785)): 83.8%
- pIC50 [1]: 4.90
- Inhibition of HDAC1 binding Rb-NT (380-785) Top [1]: 69%
SMILES: C=CC(=O)N(C)C(=O)Nc1cccc(OC)c1 [SA-01-048]

- # of CH2CONH2 (Rb protein): 2
- Cys residues masked from reacting with the iodoacetamide (Rb protein): 6
- pIC50 (Rb-NT (380-785)): 6.35
- Inhibition of AP-8-239 binding Rb-NT (380-785) Top (Rb-NT (380-785)): 90.1%
- pIC50 [1]: 7.05
- Inhibition of HDAC1 binding Rb-NT (380-785) Top [1]: 75%
SMILES: COc1cccc(-n2sc(=O)n(C)c2=O)c1 [AP-03-084]
- pancreatic tumor growth (PDA T high cell line [2]): significant reduction of tumor growth; also recorded: significantly reduced the tumor growth in mice
- cell death [3]: no cell death was induced; also recorded: does not induce cell death in ID8 cells
- tumor growth (PDA T high tumor cells): Significant reduction of tumor growth
- tumor growth (PDA T high cell line [4]): No effect of AP-3-84 treatment was observed
- apoptosis proteins (NOXA, BIM, cleaved-PARP, cleaved Caspase-3) (THP-1 cell line; 10 uM in FIG. 23A): increased mitochondrial protein levels of NOXA, BIM, cleaved-PARP, and cleaved Caspase-3; also recorded: induction of Cleaved-PARP, Noxa and Cleaved-caspase 3
- Bax, Bak, Bcl-2, Bcl-xl levels (THP-1 cell line): Bax and Bak levels were unchanged; also recorded: Bax Bcl-2 and Bcl-xl does not get altered
- ER-stress signals (ATF4, ATF3, peIF2a) (THP-1 cell line): induced higher levels of ER-stress signals (higher ATF4, ATF3); also recorded: Induction of ATF4, ATF3 and peIF2a
- macrophage cell death [5]: can induce cell death of TAMs and thioglycolate-induced macrophages; also recorded: induced macrophage cell death in dose-dependent manner
- tumor growth, AP-3-84 treatment alone (PDA T low cell line; orthotopic and subcutaneous models): didn't dramatically affect the tumor growth
- tumor growth, combined with Immunotherapy (PDA T low cell line; with anti-PD1/anti-CTLA4/anti-CD40, listed as AP-3-84): decrease tumor burden in T-low-PDA model; also recorded: effectively reduced the tumor growth compared to monotherapies
- cell division rate [6]: No effect in cell division rate
- PDA tumor cell viability / death of other cell types (Tumor PDAC cells): not of the other cell types (neither tumor nor T cells); also recorded: didn't affect PDA tumor cell viability
- immune cell composition in the peritoneum ([7]; peritoneum cells on day 21, flow cytometry): re-shapes the immune cell composition in the peritoneum
- tumor-associated macrophages in tumors ([7]; tumor cells on day 12, flow cytometry, listed as AP-3-84): depleting macrophages and inducing T cell infiltration; also recorded: effectively depletes tumor-associated macrophages in tumors
- cells undergoing cell death ([8]; 5 minute exposure, 24 hours later): 70-80%
- concentration at which induction of cell death was observed ([8]; AML cells, tested at 5, 10, 15, 20 μM): ≥ 10 µM
- cell death in AML cell lines ([8]; THP-1, AML-193, Kasumi-1, annexin V+ and AnnexinV+Live-Dead+ cells): induced cell death in different AML cell lines
- cell death [9]: no cell death was induced; also recorded: minor effect on PMA treated THP-1 cells
- gene expression changes [10]: induction of oxidative and ER stress programs with a clear activation of p53-dependent genes and caspases; also recorded: induced strong unfolded protein and oxidative stress response with the induction of apoptosis pathway and p53 signaling

From patent US20250221967A1, “COMPOSITIONS AND METHODS FOR THE TREATMENT OF CANCER AND OTHER PROLIFERATIVE DISEASES” (THE WISTAR INSTITUTE OF ANATOMY AND BIOLOGY, priority 2022, published 2025)
